Data published in article PMC5140066, “Electrophysiological Characteristics of Human iPSC-Derived Cardiomyocytes for the Assessment of Drug-Induced Proarrhythmic Potential” (PLoS ONE, 2016).

Legend:
[1] = tested on: dogs with subacute myocardial infarction; set-up: method as in PMID 11005588; conditions: cited from earlier work
[2] = tested on: human induced pluripotent stem cell-derived cardiomyocytes (hiPSC-CMs); test: Field potential recording of hiPSC-CM sheets on multi-electrode array (MEA); format: cell-based; conditions: for Effect on FPD: cumulative application; for Use (rate) dependence of FPD prolongation: from FPD-ISI plots
Experimental: The cells were thawed and suspended in iCell Cardiomyocytes Plating Medium (Cellular Dynamics International), then plated (approximately 2 × 10^6 cells/well) in 6-well tissue-culture plates coated with 0.1% gelatin. After two days of incubation at 37°C under an atmosphere of 5% CO2, the plating medium was replaced with iCell Cardiomyocytes Maintenance Medium (Cellular Dynamics International); this medium was used as the culture medium throughout the experiments and was replaced every 1 to 3 days. The cells were cultured for 7 to 14 days in a 5% CO2 incubator at 37°C and then re-plated onto MEA probes (MED-P515A or MED-PG515A; Alpha Med Scientific, Osaka, Japan).
The recording areas of the MEA probes were coated with fibronectin (Becton Dickinson, Franklin Lakes, NJ, USA; Invitrogen, Carlsbad, CA, USA; Corning, Corning, NY, USA). Fibronectin was dissolved in distilled water or Dulbecco's phosphate-buffered saline (PBS) [−] to give 50 μg/mL, the recording areas were covered with 2 μL fibronectin solution, and then the MEA probes were incubated at 37°C for at least 1 h. […] After discarding the fibronectin solution from the MEA probes without complete drying, the cell suspension at a density of 3.0 × 10^4 cells in a 2 μL droplet was re-plated onto the fibronectin-coated area of each MEA probe and incubated for 1 to 3 h in a 5% CO2 incubator at 37°C. Each well of the MEA probes was then filled with maintenance medium at a volume of 1 mL/well. The medium was replaced every 1 to 3 days thereafter, and the cells were cultured for 5 to 14 days to obtain high density cardiomyocyte-sheets with spontaneous and synchronous electrical activities.
Prior to recording FPs, the cardiomyocyte-sheets were equilibrated for at least 30 min in a 5% CO2 incubator at 37°C in fresh culture medium. The MEA probes were then transferred to a FP measurement apparatus (MED64 system; Alpha Med Scientific, Osaka, Japan) and covered with a lid through which humidified gas containing 5% CO2 was provided. […] Analogue FP signals from the spontaneously beating cardiomyocyte-sheets were acquired through a 0.1-Hz high-pass filter and a 5-kHz low-pass filter, and digitized at 20 kHz using the MED64 system. […] Compound stock solutions were prepared using DMSO at 1000-fold the target concentrations of the test compounds. The stock solutions were diluted with the maintenance medium to obtain the appropriate compound concentrations, then 1/10th to 1/50th the volume of the medium in the wells was exchanged with an equal volume of the compound-containing medium. The compounds were applied in a cumulative manner to the wells. The concentration of DMSO was 0.5–0.6% at the highest concentration of the test compounds. […] FPD (ms) and ISI (ms) were analyzed using Mobius QT software designed by WitWerx (Santa Cruz, CA, USA) (Fig 1b).
Baseline FP waveforms that met the following criteria were used for analysis. […] In the FP signals, EAD and TA were defined as slow negative spikes and a sharp deflection with an amplitude ≥ ± 100 μV, respectively (Fig 1c). EAD, TA or both usually appear during or after the second positive deflection. ISI, FPD and FPDcF were not calculated for concentrations in which EAD or TA were observed.
As previously mentioned, total 96 data equally from 4 facilities each were used for the analysis (24 data per facility). […] The root mean squared prediction error (RMSE) was used to show the level of accuracy of the equation predicted for the observed data (Fig 2). With categorical data analysis of FPD, inter-facilities differences were investigated with Kruskal-Wallis test (Fig 4).

[3] = tested on: human ventricular myocytes; set-up: method as in PMID 9709405; conditions: independent of the underlying pacing rate; cited from earlier work
[4] = tested on: guinea pig ventricular myocytes; set-up: method as in PMID 9709405; conditions: independent of the underlying pacing rate; cited from earlier work
[5] = cisapride 3 nM, all 4 facilities, n=24
[6] = cisapride 3 nM, facility A, n=6
[7] = cisapride 3 nM, facility B, n=6
[8] = cisapride 3 nM, facility C, n=6
[9] = cisapride 3 nM, facility D, n=6
[10] = cisapride 10 nM, all 4 facilities, n=24
[11] = cisapride 10 nM, all 4 facilities, n=24, listed as cisapride
[12] = cisapride 10 nM, facility A, n=6
[13] = cisapride 10 nM, facility B, n=6
[14] = cisapride 10 nM, facility C, n=6
[15] = cisapride 10 nM, facility D, n=6
[16] = cisapride 30 nM, all 4 facilities, n=24
[17] = cisapride 30 nM, facility A, n=6
[18] = cisapride 30 nM, facility B, n=6
[19] = cisapride 30 nM, facility C, n=6
[20] = cisapride 30 nM, facility D, n=6
[21] = cisapride 100 nM, all 4 facilities, n=24
[22] = cisapride 100 nM, facility D, n=6

CCS(=O)(=O)N(C)[C@H]1c2cc(C#N)ccc2OC(C)(C)[C@@H]1O (racemic) [Chromanol 293B]
Effect on effective refractory periods [1]: prolonged effective refractory periods in a rate-dependent manner | EADs and/or TAs ([2]; at concentrations up to 30 μM): not observed | Slope factor of FPD-ISI regression, % change ([2]; chromanol 293B 1 μM): 0.9162 | Slope factor of FPD-ISI regression, % change ([2]; chromanol 293B 30 μM): 0.9066 | Slope factor of FPD-ISI regression, absolute FPD (ms) ([2]; chromanol 293B 30 μM (sham 0.1674)): 0.4182 | Effect on FPD [2]: prolonged FPD in a concentration-dependent manner | Use (rate) dependence of FPD prolongation [2]: prolonged FPD in a rate-independent manner | Prolongation of APD90 [3]: about 30% | Prolongation of APD90 [4]: about 30%

COc1cc(N)c(Cl)cc1C(=O)NC1CCN(CCCOc2ccc(F)cc2)CC1OC (stereo not drawn) [Cisapride, cisapride]
Delta FPDcF ([2]; categorical analysis, Fridericia correction, S5 Table): increased in a concentration-dependent manner | Delta FPD ([2]; categorical analysis, S4 Table): increased in a concentration-dependent manner | Slope factor of FPD-ISI regression, % change ([2]; cisapride 3 nM): 0.6124 | Preparations in absolute FPD category > 450 ms [2, 5]: 21%(5/24) | Preparations in absolute FPD category > 480 ms [2, 5]: 13%(3/24) | Preparations in absolute FPD category > 500 ms [2, 5]: 17%(4/24) | Preparations in absolute FPD category ≤ 450 ms [2, 5]: 50%(12/24) | Preparations in absolute FPD category > 450 ms [2, 6]: 17%(1/6) | Preparations in absolute FPD category > 480 ms [2, 6]: 17%(1/6) | Preparations in absolute FPD category > 500 ms [2, 6]: 50% (3/6) | Preparations in absolute FPD category ≤ 450 ms [2, 6]: 17%(1/6) | Preparations in absolute FPD category > 450 ms [2, 7]: 17%(1/6) | Preparations in absolute FPD category > 480 ms [2, 7]: 17%(1/6) | Preparations in absolute FPD category > 500 ms [2, 7]: 0% (0/6) | Preparations in absolute FPD category ≤ 450 ms [2, 7]: 67%(4/6) | Preparations in absolute FPD category > 450 ms [2, 8]: 17%(1/6) | Preparations in absolute FPD category > 480 ms [2, 8]: 17%(1/6) | Preparations in absolute FPD category > 500 ms [2, 8]: 17%(1/6) | Preparations in absolute FPD category ≤ 450 ms [2, 8]: 50% (3/6) | Preparations in absolute FPD category > 450 ms [2, 9]: 33%(2/6) | Preparations in absolute FPD category > 480 ms [2, 9]: 0% (0/6) | Preparations in absolute FPD category > 500 ms [2, 9]: 0% (0/6) | Preparations in absolute FPD category ≤ 450 ms [2, 9]: 67%(4/6) | Preparations in absolute FPD category > 450 ms [2, 10]: 38%(9/24) | Preparations in absolute FPD category > 480 ms [2, 10]: 17%(4/24) | Preparations in absolute FPD category > 500 ms [2, 10]: 29%(7/24) | Preparations in absolute FPD category ≤ 450 ms [2, 10]: 17% (4/24) | Preparations in absolute FPD category > 500 ms [2, 11]: 29% | Preparations with EAD/TA [2, 11]: no EAD/TAs were observed | Preparations in absolute FPD category > 450 ms [2, 12]: 0% (0/6) | Preparations in absolute FPD category > 480 ms [2, 12]: 50% (3/6) | Preparations in absolute FPD category > 500 ms [2, 12]: 50% (3/6) | Preparations in absolute FPD category ≤ 450 ms [2, 12]: 0% (0/6) | Preparations in absolute FPD category > 450 ms [2, 13]: 33%(2/6) | Preparations in absolute FPD category > 480 ms [2, 13]: 0% (0/6) | Preparations in absolute FPD category > 500 ms [2, 13]: 17%(1/6) | Preparations in absolute FPD category ≤ 450 ms [2, 13]: 50% (3/6) | Preparations in absolute FPD category > 450 ms [2, 14]: 50% (3/6) | Preparations in absolute FPD category > 480 ms [2, 14]: 0% (0/6) | Preparations in absolute FPD category > 500 ms [2, 14]: 33%(2/6) | Preparations in absolute FPD category ≤ 450 ms [2, 14]: 17%(1/6) | Preparations in absolute FPD category > 450 ms [2, 15]: 67%(4/6) | Preparations in absolute FPD category > 480 ms [2, 15]: 17%(1/6) | Preparations in absolute FPD category > 500 ms [2, 15]: 17%(1/6) | Preparations in absolute FPD category ≤ 450 ms [2, 15]: 0% (0/6) | Slope factor of FPD-ISI regression, % change ([2]; cisapride 30 nM): 1.2274 | Slope factor of FPD-ISI regression, absolute FPD (ms) ([2]; cisapride 30 nM (sham 0.1204)): 0.1644 | Preparations in absolute FPD category > 450 ms [2, 16]: 4% (1/24) | Preparations in absolute FPD category > 480 ms [2, 16]: 13%(3/24) | Preparations in absolute FPD category > 500 ms [2, 16]: 71%(17/24) | Preparations in absolute FPD category ≤ 450 ms [2, 16]: 8% (2/24) | Preparations with EAD/TA [2, 16]: 4%(1/24) | Preparations in absolute FPD category > 500 ms ([2]; cisapride 30 nM, all 4 facilities, n=24, listed as cisapride): 71% | Number of preparations that showed EAD/TAs ([2]; cisapride 30 nM, all 4 facilities, of 24): 1 preparation | Preparations in absolute FPD category > 450 ms [2, 17]: 0% (0/6) | Preparations in absolute FPD category > 480 ms [2, 17]: 0% (0/6) | Preparations in absolute FPD category > 500 ms [2, 17]: 83%(5/6) | Preparations in absolute FPD category ≤ 450 ms [2, 17]: 0% (0/6) | Preparations with EAD/TA [2, 17]: 17%(1/6) | Preparations in absolute FPD category > 450 ms [2, 18]: 17%(1/6) | Preparations in absolute FPD category > 480 ms [2, 18]: 0% (0/6) | Preparations in absolute FPD category > 500 ms [2, 18]: 50% (3/6) | Preparations in absolute FPD category ≤ 450 ms [2, 18]: 33%(2/6) | Preparations in absolute FPD category > 450 ms [2, 19]: 0% (0/6) | Preparations in absolute FPD category > 480 ms [2, 19]: 33%(2/6) | Preparations in absolute FPD category > 500 ms [2, 19]: 67%(4/6) | Preparations in absolute FPD category ≤ 450 ms [2, 19]: 0% (0/6) | Preparations in absolute FPD category > 450 ms [2, 20]: 0% (0/6) | Preparations in absolute FPD category > 480 ms [2, 20]: 17%(1/6) | Preparations in absolute FPD category > 500 ms [2, 20]: 83%(5/6) | Preparations in absolute FPD category ≤ 450 ms [2, 20]: 0% (0/6) | Preparations in absolute FPD category > 450 ms [2, 21]: 0% (0/24) | Preparations in absolute FPD category > 480 ms [2, 21]: 0% (0/24) | Preparations in absolute FPD category > 500 ms [2, 21]: 8%(2/24) | Preparations in absolute FPD category ≤ 450 ms [2, 21]: 0% (0/24) | Preparations with EAD/TA [2, 21]: 92%(22/24) | Preparations with EAD/TA ([2]; cisapride 100 nM, all 4 facilities, n=24, listed as cisapride): 92% | Preparations with EAD/TA ([2]; cisapride 100 nM, facility A, n=6): 100%(6/6) | Preparations with EAD/TA ([2]; cisapride 100 nM, facility B, n=6): 100%(6/6) | Preparations with EAD/TA ([2]; cisapride 100 nM, facility C, n=6): 100%(6/6) | Preparations in absolute FPD category > 450 ms [2, 22]: 0% (0/6) | Preparations in absolute FPD category > 480 ms [2, 22]: 0% (0/6) | Preparations in absolute FPD category > 500 ms [2, 22]: 33%(2/6) | Preparations in absolute FPD category ≤ 450 ms [2, 22]: 0% (0/6) | Preparations with EAD/TA [2, 22]: 67%(4/6) | Preparations with EAD/TA ([2]; cisapride 300 nM, all 4 facilities, n=24): 100%(24/24) | Preparations with EAD/TA ([2]; cisapride 300 nM, facility D, n=6): 100%(6/6) | Effect on FPD [2]: prolonged FPD in a concentration-dependent manner | Use (rate) dependence of FPD prolongation [2]: induced FPD prolongation in a reverse use-dependent manner

Cc1cccc(CCN2CCC(C(=O)c3ccc(NS(C)(=O)=O)cc3)CC2)n1 [E-4031]
Slope factor of FPD-ISI regression, % change ([2]; E-4031 1 nM): 0.9347 | Slope factor of FPD-ISI regression, % change ([2]; E-4031 10 nM): 1.8977 | Slope factor of FPD-ISI regression, absolute FPD (ms) ([2]; E-4031 10 nM (sham 0.1653)): 0.3328 | Use (rate) dependence of FPD prolongation [2]: induced FPD prolongation in a reverse use-dependent manner
